# Results reported in patent US20240158412A1 (Faxian Therapeutics, LLC, priority 2021, published 2024).
# Target: USP7 (Homo sapiens, UniProt Q93009)
# Test: biochemical
# Procedure: Example A. Biochemical Assay of USP7 Inhibitor Potency (IC50)
# Fluorescence intensity assay of USP7 activity in the presence USP7 inhibitors. Recombinant USP7 protein (catalogue number E-519) and the fluorescence substrate ubiquitin-rhodamine 110 (Rh110) (catalogue number U-555) were purchased from Boston Biochem (840 Memorial Drive, Cambridge, MA 02139). The reaction was carried out in buffer 20 mM HEPES, pH 7.3, 150 mM NaCl, 1 mM TCEP, 125 μg/mL BSA at room temperature in a black 384-well Microplate (Greiner, catalog number 781076).
# Test compounds were dissolved in DMSO to make 50 mM stock solution. […] In wells of a black 384-well Microplate, 15 μl of 100 pM of USP7 enzyme was added to each well with pre-diluted compounds and incubated at room temperature for 30 minutes, followed by addition of 10 μl of ubiquitin-rhodamine 110 (Rh110) substrate to reach 160 nM final concentration. The reaction mixtures were incubated for additional 90 minutes at room temperature. The fluorescence signal of the digested substrate was measured on an EnVision microplate reader (PerkinElmer,), using excitation at 485 nm and emission at 535 nm. The IC50 values were calculated using XLfit software.
# 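Further: fluorescence intensity readout of USP7 enzymatic activity, reaction incubated 90 min at room temperature.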
# USP7, sequence (Q93009 whole entry): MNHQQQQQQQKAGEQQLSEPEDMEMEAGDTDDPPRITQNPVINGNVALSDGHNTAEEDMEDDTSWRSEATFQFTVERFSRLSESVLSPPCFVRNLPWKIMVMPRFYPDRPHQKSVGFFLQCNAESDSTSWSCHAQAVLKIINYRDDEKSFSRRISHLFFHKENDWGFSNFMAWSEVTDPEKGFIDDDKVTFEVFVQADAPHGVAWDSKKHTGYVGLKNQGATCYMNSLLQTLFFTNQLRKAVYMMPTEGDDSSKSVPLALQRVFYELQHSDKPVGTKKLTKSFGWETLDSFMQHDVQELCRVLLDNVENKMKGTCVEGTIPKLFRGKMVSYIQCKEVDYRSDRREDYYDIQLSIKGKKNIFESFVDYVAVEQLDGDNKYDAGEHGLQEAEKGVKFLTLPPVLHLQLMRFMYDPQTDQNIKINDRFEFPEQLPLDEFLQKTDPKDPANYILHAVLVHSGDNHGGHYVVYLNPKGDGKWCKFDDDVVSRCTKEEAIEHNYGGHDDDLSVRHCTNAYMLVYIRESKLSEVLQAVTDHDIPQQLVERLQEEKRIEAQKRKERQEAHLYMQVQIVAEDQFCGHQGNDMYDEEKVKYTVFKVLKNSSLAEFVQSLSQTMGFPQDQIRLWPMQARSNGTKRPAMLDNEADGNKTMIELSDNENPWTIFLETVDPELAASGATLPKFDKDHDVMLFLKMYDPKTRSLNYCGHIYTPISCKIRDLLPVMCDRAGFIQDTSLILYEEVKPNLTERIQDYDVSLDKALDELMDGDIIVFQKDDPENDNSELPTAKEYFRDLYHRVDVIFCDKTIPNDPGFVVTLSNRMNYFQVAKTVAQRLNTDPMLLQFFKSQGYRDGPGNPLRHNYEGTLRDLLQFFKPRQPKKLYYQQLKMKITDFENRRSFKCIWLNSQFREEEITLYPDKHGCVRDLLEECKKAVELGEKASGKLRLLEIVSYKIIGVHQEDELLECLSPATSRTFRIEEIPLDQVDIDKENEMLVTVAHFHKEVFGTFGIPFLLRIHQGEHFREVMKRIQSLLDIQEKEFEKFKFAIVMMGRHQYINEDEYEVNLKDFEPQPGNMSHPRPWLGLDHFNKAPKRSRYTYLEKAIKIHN
row,IC50 [nM],SMILES
1,< 10,"CC(C)(C)c1cnn(Cc2cc3nccc(-c4cc(C#N)cc5c4N([C@@H]4CN[C@@H](CO)C4)CCC5)c3s2)c(=O)c1 [Example 190, 8-[2-[(4-tert-butyl-6-oxo-pyridazin-1-yl)methyl]thieno[3,2-b]pyridin-7-yl]-1-[(3S,5R)-5-(hydroxymethyl)pyrrolidin-3-yl]-3,4-dihydro-2H-quinoline-6-carbonitrile]"
2,< 10,"N#Cc1cc2c(c(-c3ccnc4cc(Cn5c(=O)ccn(C6CC(F)(F)C6)c5=O)sc34)c1)N([C@@H]1CN[C@@H](CO)C1)CCC2 [Example 191, 8-(2-((3-(3,3-difluorocyclobutyl)-2,6-dioxo-2,3-dihydropyrimidin-1(6H)-yl)methyl)thieno[3,2-b]pyridin-7-yl)-1-((3S,5R)-5-(hydroxymethyl)pyrrolidin-3-yl)-1,2,3,4-tetrahydroquinoline-6-carbonitrile]"
3,< 10,"N#Cc1cc(-c2ccnc3cc(Cn4ncc(C5(C(F)(F)F)CC5)cc4=O)sc23)c2c(c1)[C@@H]1C[C@@H]1CN2[C@@H]1CN[C@@H](CO)C1 [Example 194a, (1aS,7bR)-3-((3S,5R)-5-(hydroxymethyl)pyrrolidin-3-yl)-4-(2-((6-oxo-4-(1-(trifluoromethyl)cyclopropyl)pyridazin-1(6H)-yl)methyl)thieno[3,2-b]pyridin-7-yl)-1a,2,3,7b-tetrahydro-1H-cyclopropa[c]quinoline-6-carbonitrile]"
4,10 to 100,"COC[C@@]1(C)C[C@H](N2CCCc3cc(Cl)cc(-c4ccnc5cc(CN6C(=O)CCC6=O)sc45)c32)CN1 [Example 200, 1-((7-(6-chloro-1-((3S,5R)-5-(methoxymethyl)-5-methylpyrrolidin-3-yl)-1,2,3,4-tetrahydroquinolin-8-yl)thieno[3,2-b]pyridin-2-yl)methyl)pyrrolidine-2,5-dione]"
5,< 10,"C[C@@]1(C(=O)O)C[C@H](N2CCCc3cc(Cl)cc(-c4ccnc5cc(CN6C(=O)CCC6=O)sc45)c32)CN1 [Example 205, (2S,4S)-4-(6-chloro-8-(2-((2,5-dioxopyrrolidin-1-yl)methyl)thieno[3,2-b]pyridin-7-yl)-3,4-dihydroquinolin-1(2H)-yl)-2-methylpyrrolidine-2-carboxylic acid]"
6,< 10,"C[C@]1(CO)C[C@H](N2CCCc3cc(C#N)cc(-c4ccnc5cc(CN6C(=O)C7CC7C6=O)sc45)c32)CN1 (stereo partly drawn) [Example 206, 8-(2-((2,4-dioxo-3-azabicyclo[3.1.0]hexan-3-yl)methyl)thieno[3,2-b]pyridin-7-yl)-1-((3S,5R)-5-(hydroxymethyl)-5-methylpyrrolidin-3-yl)-1,2,3,4-tetrahydroquinoline-6-carbonitrile]"
7,< 10,"O=C1CCC(=O)N1Cc1cc2nccc(-c3cc(Cl)cc4c3N(C3CNC5(CC(F)C5)C3)CCC4)c2s1 (stereo not drawn) [Example 211, 1-((7-(6-chloro-1-(2-fluoro-5-azaspiro[3.4]octan-7-yl)-1,2,3,4-tetrahydroquinolin-8-yl)thieno[3,2-b]pyridin-2-yl)methyl)pyrrolidine-2,5-dione]"
8,< 10,"Cc1cnn(Cc2cc3nccc(-c4cc(Cl)cc5c4N([C@@H]4CN[C@@H](CO)C4)CCO5)c3s2)c(=O)c1 [Example 216, 2-((7-(7-chloro-4-((3S,5R)-5-(hydroxymethyl)pyrrolidin-3-yl)-3,4-dihydro-2H-benzo[b][1,4]oxazin-5-yl)thieno[3,2-b]pyridin-2-yl)methyl)-5-methylpyridazin-3(2H)-one]"
9,< 10,"CC(C)(C)c1cnn(Cc2cc3nccc(-c4cc(C#N)cc5c4N([C@@H]4CN[C@@](C)(CO)C4)CCO5)c3s2)c(=O)c1 [Example 221, 5-[2-[(4-tert-butyl-6-oxo-pyridazin-1-yl)methyl]thieno[3,2-b]pyridin-7-yl]-4-[(3S,5R)-5-(hydroxymethyl)-5-methyl-pyrrolidin-3-yl]-2,3-dihydro-1,4-benzoxazine-7-carbonitrile]"
10,< 10,"C[C@]1(CO)C[C@H](N2CCOc3cc(C#N)cc(-c4ccnc5cc(Cn6ncc(C7(C(F)(F)F)CC7)cc6=O)sc45)c32)CN1 [Example 222, 4-[(3S,5R)-5-(hydroxymethyl)-5-methyl-pyrrolidin-3-yl]-5-[2-[[6-oxo-4-[1-(trifluoromethyl)cyclopropyl]pyridazin-1-yl]methyl]thieno[3,2-b]pyridin-7-yl]-2,3-dihydro-1,4-benzoxazine-7-carbonitrile]"

# More lines, now with the values behind:
row,SMILES,IC50 [nM]
1,"O=c1cc(C2CC2)cnn1Cc1cc2nccc(-c3cc(Cl)cc4c3N([C@@H]3CN[C@@H](CO)C3)CCC4)c2s1 [Example 186, 2-[[7-[6-chloro-1-[(3S,5R)-5-(hydroxymethyl)pyrrolidin-3-yl]-3,4-dihydro-2H-quinolin-8-yl]thieno[3,2-b]pyridin-2-yl]methyl]-5-cyclopropyl-pyridazin-3-one]",< 10
2,"O=c1cc(C2CC2)cnn1Cc1cc2nccc(-c3cc(Cl)cc4c3N([C@@H]3CN[C@H](CO)C3)CCC4)c2s1 [Example 187, 2-((7-(6-chloro-1-((3S,5S)-5-(hydroxymethyl)pyrrolidin-3-yl)-1,2,3,4-tetrahydroquinolin-8-yl)thieno[3,2-b]pyridin-2-yl)methyl)-5-cyclopropylpyridazin-3(2H)-one]",< 10
3,"CC1(c2cnn(Cc3cc4nccc(-c5cc(Cl)cc6c5N([C@@H]5CN[C@@H](CO)C5)CCC6)c4s3)c(=O)c2)CC1 [Example 188, 2-((7-(6-chloro-1-((3S,5R)-5-(hydroxymethyl)pyrrolidin-3-yl)-1,2,3,4-tetrahydroquinolin-8-yl)thieno[3,2-b]pyridin-2-yl)methyl)-5-(1-methylcyclopropyl)pyridazin-3(2H)-one]",< 10
4,"CC(C)(O)[C@H]1C[C@H](N2CCCc3cc(Cl)cc(-c4ccnc5cc(CN6C(=O)CCC6=O)sc45)c32)CN1 [Example 189, 1-((7-(6-chloro-1-((3S,5R)-5-(2-hydroxypropan-2-yl)pyrrolidin-3-yl)-1,2,3,4-tetrahydroquinolin-8-yl)thieno[3,2-b]pyridin-2-yl)methyl)pyrrolidine-2,5-dione]",< 10
5,"C[C@]1(CO)C[C@H](N2CCCc3cc(Cl)cc(-c4ccnc5cc(Cn6ncc(C7(C(F)(F)F)CC7)cc6=O)sc45)c32)CN1 [Example 207, 2-((7-(6-chloro-1-((3S,5R)-5-(hydroxymethyl)-5-methylpyrrolidin-3-yl)-1,2,3,4-tetrahydroquinolin-8-yl)thieno[3,2-b]pyridin-2-yl)methyl)-5-(1-(trifluoromethyl)cyclopropyl)pyridazin-3(2H)-one]",< 10
6,"C[C@]1(CO)C[C@H](N2CCCc3cc(Cl)cc(-c4cc[n+]([O-])c5cc(CN6C(=O)CCC6=O)sc45)c32)CN1 [Example 208, 7-(6-chloro-1-((3S,5R)-5-(hydroxymethyl)-5-methylpyrrolidin-3-yl)-1,2,3,4-tetrahydroquinolin-8-yl)-2-((2,5-dioxopyrrolidin-1-yl)methyl)thieno[3,2-b]pyridine 4-oxide]",< 10
7,"C[C@]1(CO)C[C@H](N2CCCc3cc(C#N)cc(-c4ccnc5cc(CN6C(=O)CCC6=O)sc45)c32)CN1 [Example 209, 8-(2-((2,5-dioxopyrrolidin-1-yl)methyl)thieno[3,2-b]pyridin-7-yl)-1-((3S,5R)-5-(hydroxymethyl)-5-methylpyrrolidin-3-yl)-1,2,3,4-tetrahydroquinoline-6-carbonitrile]",< 10
8,"C[C@]1(CO)C[C@H](N2CCCc3cc(Cl)cc(-c4ccnc5c(F)c(CN6C(=O)CCC6=O)sc45)c32)CN1 [Example 210, 1-[[7-[6-chloro-1-[(3S,5R)-5-(hydroxymethyl)-5-methyl-pyrrolidin-3-yl]-3,4-dihydro-2H-quinolin-8-yl]-3-fluoro-thieno[3,2-b]pyridin-2-yl]methyl]pyrrolidine-2,5-dione]",< 10
9,"O=C1C2CC2C(=O)N1Cc1cc2nccc(-c3cc(Cl)cc4c3N([C@@H]3CN[C@@H](CO)C3)CCO4)c2s1 (stereo partly drawn) [Example 214, 3-((7-(7-chloro-4-((3S,5R)-5-(hydroxymethyl)pyrrolidin-3-yl)-3,4-dihydro-2H-benzo[b][1,4]oxazin-5-yl)thieno[3,2-b]pyridin-2-yl)methyl)-3-azabicyclo[3.1.0]hexane-2,4-dione]",< 10
10,"N#Cc1cc2c(c(-c3ccnc4cc(CN5C(=O)C6CC6C5=O)sc34)c1)N([C@@H]1CN[C@@H](CO)C1)CCO2 (stereo partly drawn) [Example 215, 5-(2-((2,4-dioxo-3-azabicyclo[3.1.0]hexan-3-yl)methyl)thieno[3,2-b]pyridin-7-yl)-4-((3S,5R)-5-(hydroxymethyl)pyrrolidin-3-yl)-3,4-dihydro-2H-benzo[b][1,4]oxazine-7-carbonitrile]",< 10
11,"CC(C)(C)c1cnn(Cc2cc3nccc(-c4cc(C#N)cc5c4N([C@@H]4CN[C@@H](CO)C4)CCO5)c3s2)c(=O)c1 [Example 217, 5-(2-((4-(tert-butyl)-6-oxopyridazin-1(6H)-yl)methyl)thieno[3,2-b]pyridin-7-yl)-4-((3S,5R)-5-(hydroxymethyl)pyrrolidin-3-yl)-3,4-dihydro-2H-benzo[b][1,4]oxazine-7-carbonitrile]",< 10
12,"CC1(C)C2C(=O)N(Cc3cc4nccc(-c5cc(C#N)cc6c5N([C@@H]5CN[C@@](C)(CO)C5)CCO6)c4s3)C(=O)C21 (stereo partly drawn) [Example 220, 5-(2-((6,6-dimethyl-2,4-dioxo-3-azabicyclo[3.1.0]hexan-3-yl)methyl)thieno[3,2-b]pyridin-7-yl)-4-((3S,5R)-5-(hydroxymethyl)-5-methylpyrrolidin-3-yl)-3,4-dihydro-2H-benzo[b][1,4]oxazine-7-carbonitrile]",< 10
13,"C[C@]1(CO)C[C@H](N2CCOc3cc(C#N)cc(-c4cc[n+]([O-])c5cc(Cn6ncc(C7(C(F)(F)F)CC7)cc6=O)sc45)c32)CN1 [Example 223, 7-(7-cyano-4-((3S,5R)-5-(hydroxymethyl)-5-methylpyrrolidin-3-yl)-3,4-dihydro-2H-benzo[b][1,4]oxazin-5-yl)-2-((6-oxo-4-(1-(trifluoromethyl)cyclopropyl)pyridazin-1(6H)-yl)methyl)thieno[3,2-b]pyridine 4-oxide]",10 to 100
14,"C[C@]1(CO)C[C@H](N2CCOc3cc(C(F)(F)F)cc(-c4ccnc5cc(CN6C(=O)CCC6=O)sc45)c32)CN1 [Example 224, 1-((7-(4-((3S,5R)-5-(hydroxymethyl)-5-methylpyrrolidin-3-yl)-7-(trifluoromethyl)-3,4-dihydro-2H-benzo[b][1,4]oxazin-5-yl)thieno[3,2-b]pyridin-2-yl)methyl)pyrrolidine-2,5-dione]",< 10
